# Article PMC6759763, “Porphyromonas gingivalis Tyrosine Phosphatase Php1 Promotes Community Development and Pathogenicity” (mBio, 2019)
# Experiments:
# FPtk1 = target: T1, FPtk1 (Porphyromonas gingivalis, UniProt B2RKZ8); conditions: 5 mM ATP, 1 h; Php1 as phosphoacceptor
# T1 construct: gene PGN_1524
# Php1 [1] = target: T2, Php1 (Porphyromonas gingivalis, UniProt B2RKZ9); set-up: gene PGN_1525; conditions: 50 mM pNPP, pH 8.0, 37 °C, 1 mM MnCl2; also inhibits with phosphotyrosine as substrate
# T2 sequence (B2RKZ9 entry or part of it): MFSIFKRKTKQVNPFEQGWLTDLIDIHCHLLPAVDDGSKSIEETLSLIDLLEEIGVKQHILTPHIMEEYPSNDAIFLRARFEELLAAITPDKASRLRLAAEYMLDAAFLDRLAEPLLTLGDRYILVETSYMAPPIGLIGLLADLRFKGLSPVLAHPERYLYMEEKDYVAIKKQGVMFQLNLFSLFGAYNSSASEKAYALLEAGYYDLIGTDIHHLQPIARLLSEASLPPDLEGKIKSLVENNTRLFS
# Ltp1 = target: T3, Ltp1 (Porphyromonas gingivalis, UniProt B2RI15); experiment: phosphatase inhibition, pNPP hydrolysis; assay type: biochemical; conditions: pNPP as substrate; DMSO vehicle
# T3 construct: gene PGN_0491
# T3 sequence (B2RI15 entry or part of it): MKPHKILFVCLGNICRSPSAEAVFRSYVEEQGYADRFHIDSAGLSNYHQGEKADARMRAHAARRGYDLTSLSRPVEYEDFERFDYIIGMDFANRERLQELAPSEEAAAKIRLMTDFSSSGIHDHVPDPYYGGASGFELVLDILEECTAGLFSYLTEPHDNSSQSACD
# Php1 [2] = target: T2, Php1; experiment: p-nitrophenol release ([…] nm); assay type: biochemical; set-up: gene PGN_1525; php1 coding region, GST-tagged (pGEX-4T-1) or His-tagged (pLATE51), E. coli BL21(DE3) Star; 247 residues, 28 kDa; conditions: 50 mM pNPP, pH 8.0, 37 °C, 1 mM MnCl2
# Php1 [3] = target: T2, Php1; set-up: gene PGN_1525; conditions: 200 μM phosphotyrosine, pH 8.0, 37 °C, 1 mM MnCl2
# T1 sequence (B2RKZ8 entry or part of it): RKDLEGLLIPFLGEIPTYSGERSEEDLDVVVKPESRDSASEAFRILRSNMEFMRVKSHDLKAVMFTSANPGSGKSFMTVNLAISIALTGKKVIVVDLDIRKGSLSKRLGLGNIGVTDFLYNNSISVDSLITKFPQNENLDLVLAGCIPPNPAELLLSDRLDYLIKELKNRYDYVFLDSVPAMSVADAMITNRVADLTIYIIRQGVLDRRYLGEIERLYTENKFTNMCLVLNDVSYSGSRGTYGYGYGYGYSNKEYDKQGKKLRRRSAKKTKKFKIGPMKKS
structure (smiles),measurement,setting,value
Nc1ncnc2c1ncn2[C@@H]1O[C@H](COP(=O)(O)OP(=O)(O)OP(=O)(O)O)[C@@H](O)[C@H]1O [ATP],anti-phosphotyrosine immunoblot of Php1 phosphorylation,FPtk1,Tyrosine phosphorylation of Php1 increased after incubation with FPtk1 in the presence of ATP
"[O]=[V]([OH])([OH])[OH] [Na3VO4, sodium orthovanadate]",inhibition,Php1 [1],(pNPP) was inhibited by the tyrosine phosphatase inhibitor Na3VO4
"Nc1ccc(C(=O)O)cc1 [pABA, para-amino benzoic acid]",% activity relative to no inhibitor,Ltp1,Both H2O2 and pABA inhibited Ltp1 but not Php1
"O=[N+]([O-])c1ccc(OP(=O)(O)O)cc1 [pNPP, p-nitrophenyl phosphate]",p-nitrophenol release (405 nm),Php1 [2],Php1 phosphatase activity on p-nitrophenyl phosphate (pNPP)
N[C@@H](Cc1ccc(OP(=O)(O)O)cc1)C(=O)O [phosphotyrosine],malachite green phosphate release,Php1 [3],Php1 was most active against phosphotyrosine
